This experiment concerns the target T1, TNIK (Homo sapiens, UniProt Q9UKE5).
T1 construct: kinase domain, DNA-tagged, KINOMEscan commercial panel
As to the kind of experiment: KINOMEscan competition binding (immobilised reference ligand, qPCR). To be noted: read-out: % Ctrl / 10 μM. An excerpt:
KINOMEscan competition binding (immobilised reference ligand, qPCR) on TNIK

T1 sequence (Q9UKE5 25-289 limits assumed): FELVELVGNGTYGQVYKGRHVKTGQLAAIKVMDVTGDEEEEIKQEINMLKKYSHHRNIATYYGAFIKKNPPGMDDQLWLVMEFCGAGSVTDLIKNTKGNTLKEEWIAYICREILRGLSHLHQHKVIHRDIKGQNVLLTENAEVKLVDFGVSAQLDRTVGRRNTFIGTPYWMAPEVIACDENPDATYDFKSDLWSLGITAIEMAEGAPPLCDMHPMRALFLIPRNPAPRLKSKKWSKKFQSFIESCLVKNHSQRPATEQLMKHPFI

In the case of `Cc1nc(Nc2ncc(C(=O)Nc3c(C)cccc3Cl)s2)cc(N2CCN(CCO)CC2)n1` [Dasatinib], the remaining binding at 10 µM is 11%.

Consider `CN1CC[C@H](c2c(O)cc(O)c3c(=O)cc(-c4ccccc4Cl)oc23)[C@H](O)C1` [Flavopiridol], for which the remaining binding at 10 µM is 33%. The figure for `COC(=O)Nc1nc2cc(C(=O)c3ccccc3)ccc2[nH]1` [Mebendazole] is 8.2%.

The values are drawn from paper PMC5030704 (Scientific Reports, 2016).
